Values joined by “and” are separate entries in the source; they are usually repeats but may differ in a detail not shown here. Identical values can stand only once. Like-named read-outs stand apart in the source and are kept apart here.
Legend:
fibronectin = test: Fibronectin synthesis in NHDF (ELISA); format: cell-based, human; settings: 10 ng/ml, 72 hours
Experimental: (§1) Tests were performed with normal human dermal fibroblast cultures at the 8th passage. Cells were grown in DMEM supplemented with glutamine at 2 mM, penicillin at 50 U/mL and streptomycin (50 μg/mL) and 10% of fetal calf serum (FCS) at 37° C. in a 5% CO2 atmosphere.
(§2) Fibroblasts were cultured for 24 hours before the cells were incubated with the test compounds for further 72 hours. After the incubation the culture supernatants were collected in order to measure the released quantities of procollagen I, VEGF, and fibronectin by means of ELISA. Reference test compounds were vitamin C (procollagen I), PMA (VEGF), and TGF-β (fibronectin).

VEGF = VEGF release in NHDF (ELISA); format: cell-based, human; settings: 1 μg/ml, 72 hours
Experimental: as §1, §2

[1] = system: hydrogen peroxide (DHR) in NHEK cells; test: Protection against UV-induced H2O2 stress in NHEK (DHR probe, flow cytometry); format: cell-based, human; settings: 180 mJ/cm^2 UVB (2839 mJ/cm^2 UVA); for H2O2 (AU) (DHR GMFI): single values
Experimental: (§3) Pre-incubated NHEK were incubated with the test compound for 24 h. Then the specific fluorescence probe for the measurement of hydrogen peroxide (DHR) or lipid peroxides (C11-fluor) was added and incubated for 45 min. Irradiation occurred with in H2O2 determination UVB at 180 mJ/cm^2 (+UVA at 2839 mJ/cm^2) or UVB at 240 mJ/cm^2 (+UVA at 3538 mJ/cm^2) in lipid peroxide, respectively, using a SOL500 Sun Simulator lamp. After irradiation the cells were post-incubated for 30 min before flow-cytometry analysis.

[2] = system: lipid peroxides (C11-fluor) in NHEK cells; test: Protection against UV-induced lipid peroxide in NHEK (C11-fluor probe, flow cytometry); format: cell-based, human
Experimental: as §3

procollagen I = test: Procollagen I synthesis in NHDF (ELISA); format: cell-based, human; settings: 20 μg/ml, 72 hours
Experimental: as §1, §2

TNF-α = TNF-α release in stimulated NHEK (ELISA); format: cell-based, human; settings: Homo sapiens, NHEK, poly(I:C), read-out: TNFα Inhibition %
Experimental: (§4) NHEK were pre-incubated for 24 h with the test compounds. The medium was replaced with the NHEK culture medium containing the inflammatory inducers (PMA or Poly I:C) and incubated for another 24 hours. Positive and negative controls ran in parallel. At the endpoint the culture supernatants were quantified of secreted IL-8, PGE2 and TNF-α by means of ELISA.

[3] = Water solubility of naringenin-5-rhamnoside (0.2 μm filtered solutions, HPLC); format: physicochemical; settings: read-out: maximum water solubility
Experimental: FIG. 1: Determination of solubility of naringenin-5-O-α-L-rhamnoside (NR1) in water. Defined concentrations of NR1 were 0.22 μm-filtered before injection to HPLC. Soluble concentrations were calculated from peak areas by determined regression curves.
FIG. 1 illustrates the amounts of Naringenin-5-rhamnoside recaptured from a RP18 HPLC-column after loading of a 0.2 μm filtered solution containing defined amounts up to 25 mM of the same. Amounts were calculated from a regression curve.

[4] = system: normal human epidermal keratinocytes (NHEK); test: Cytotoxicity on NHEK monolayer cultures (MTT reduction assay and morphological observation); format: cell-based; settings: for Viability (%): single values, listed as Nar-5-Rha
Experimental: To determine the cytotoxicity of flavonoid-5-O-α-L-rhamnosides tests were performed versus their aglycon derivatives in cell monolayer cultures. For this purpose concentrations ranging from 1 μM to 250 μM were chosen. The viability of normal human epidermal keratinocytes (NHEK) was twice evaluated by a MTT reduction assay and morphological observation with a microscope. NHEK were grown at 37° C. and 5% CO2 aeration in Keratinocyte-SFM medium supplemented with epidermal growth factor (EGF) at 0.25 ng/mL, pituitary extract (PE) at 25 μg/mL and gentamycin (25 μg/mL) for 24 h and were used at the 3rd passage. For cytotoxicity testing, pre-incubated NHEK were given fresh culture medium containing a specific concentration of test compound and incubated for 24 h. After a medium change at same test concentration cells were incubated a further 24 h until viability was determined. Test results are given in Table B2 and illustrated in FIG. 10.

PGE2 = PGE2 release in stimulated NHEK (ELISA); format: cell-based, human; settings: Homo sapiens, NHEK, PMA 1 μg/ml; for inhibition at 1 µM: 10^−6 M
Experimental: as §4

IL-8 = IL-8 release in stimulated NHEK (ELISA); format: cell-based, human; settings: Homo sapiens, NHEK
Experimental: as §4

[5] = 50 μM, 240 mJ/cm^2 UVB (3538 mJ/cm^2 UVA)
[6] = 50 μM, 240 mJ/cm^2 UVB (3538 mJ/cm^2 UVA), single values

Compound: TGF-β
- Fibronectin % Control (fibronectin): 181%
- Fibronectin % Stimulation (fibronectin): 81%
- Fibronectin (fibronectin; single values): 10870 ng/mL and 11178 ng/mL and 11128 ng/mL

Compound: CCCCCCCCCCCCCC(=O)O[C@@H]1[C@@H](C)[C@@]2(O)[C@@H](C=C(CO)C[C@]3(O)C(=O)C(C)=C[C@@H]23)[C@@H]2C(C)(C)[C@]12OC(C)=O [PMA, reference compound]
- Mean VEGF (VEGF): 148 pg/mL
- VEGF % Control (VEGF): 205%
- VEGF % Stimulation (VEGF): 105%
- VEGF (VEGF; single values): 150 pg/mL and 143 pg/mL

Compound: COc1ccc(O)c(C(C)(C)C)c1 [BHA]
- H2O2 % irradiated control ([1]; 100 μM): 42%
- H2O2 (AU) Mean ([1]; 100 μM): 776 AU
- H2O2 Protection % ([1]; 100 μM): 70%
- H2O2 (AU) (DHR GMFI) ([1]; 100 μM): 740 AU and 834 AU and 754 AU

Compound: Cc1cc(C(C)(C)C)c(O)c(C(C)(C)C)c1 [BHT]
- C11-fluor(AU) Mean (1/GMFI) [2, 5]: 3.3E−04 AU
- lipid peroxide % Irradiated control [2, 5]: 72%
- lipid peroxide Protection % [2, 5]: 37%
- C11-fluor(AU) 1/GMFI [2, 6]: 3.2E−04 AU and 3.3E−04 AU and 3.5E−04 AU
- C11-fluor(AU) GMFI [2, 6]: 3139 AU and 3047 AU and 2877 AU

Compound: O=C1O[C@H]([C@@H](O)CO)C(O)=C1O [Vitamin C]
- Procollagen I % Control (procollagen I): 316%
- Procollagen I % Stimulation (procollagen I): 216%
- Procollagen I Mean (procollagen I): 5272 ng/mL
- Procollagen I (procollagen I; single values): 4739 ng/mL and 5854 ng/mL and 5225 ng/mL

Compound: C[C@@H]1O[C@@H](Oc2cc(O)cc3c2C(=O)CC(c2ccc(O)cc2)O3)[C@H](O)[C@H](O)[C@H]1O (mixture of isomers) [NR1, Naringenin-5-O-α-L-rhamnoside]
- inhibition at 100 µM (TNF-α): 8%
- solubility ([3]; equivalent of 10 mmol/L): ~4200 µg/mL
- solubility [3]: ~10 mM
- anti-oxidative function on lipid peroxides (in words) [2]: anti-oxidative function
- Viability (%) Mean ([4]; 1 μM): 101%
- Viability (%) ([4]; 1 μM): 91% and 111%
- Viability (%) Mean ([4]; 2.5 μM): 93%
- Viability (%) ([4]; 2.5 μM): 92% and 93%
- Viability (%) Mean ([4]; 5 μM): 86%
- Viability (%) ([4]; 5 μM): 85% and 88%
- Viability (%) Mean ([4]; 10 μM): 97%
- Viability (%) ([4]; 10 μM): 94% and 100%
- Viability (%) Mean ([4]; 25 μM): 95%
- Viability (%) ([4]; 25 μM): 92% and 98%
- Viability (%) Mean ([4]; 50 μM): 84%
- Viability (%) ([4]; 50 μM): 78% and 91%
- Viability (%) Mean ([4]; 100 μM): 86%
- Viability (%) ([4]; 100 μM): 82% and 90%
- Viability (%) Mean ([4]; 250 μM): 83%
- Viability (%) ([4]; 250 μM): 79% and 87%
- inhibition at 100 µM (PGE2; 100 μM): 21%
- inhibition at 100 µM (IL-8; PMA): 12%
- inhibition at 100 µM (IL-8; poly(I:C)): 14%

Compound: C[C@@H]1C[C@H]2[C@@H]3CCC4=CC(=O)C=C[C@]4(C)[C@@]3(F)[C@@H](O)C[C@]2(C)[C@@]1(O)C(=O)CO [Dexamethasone, reference compound]
- inhibition at 1 µM (PGE2): 9%

Compound: Cc1c(C)c2c(c(C)c1O)CC[C@@](C)(CCC[C@H](C)CCC[C@H](C)CCCC(C)C)O2 [Vit. E]
- H2O2 % irradiated control ([1]; 50 μM): 35%
- H2O2 (AU) Mean ([1]; 50 μM): 655 AU
- H2O2 Protection % ([1]; 50 μM): 78%
- H2O2 (AU) (DHR GMFI) ([1]; 50 μM): 628 AU and 650 AU and 687 AU

Compound: COc1ccc2c(c1)c(CC(=O)O)c(C)n2C(=O)c1ccc(Cl)cc1 [Indomethacin, reference compound]
- inhibition at 1 µM (PGE2): 106%
